Experiments:
Carbonic anhydrase 1 = Carbonic anhydrase 1 (Homo sapiens, UniProt P00915); test: Inhibition of recombinant human carbonic anhydrase-1 assessed as reduction in enzyme-catalyzed hydration activity using CO2 as substrate preincubated for 15 mins followed substrate addition measured after 10 to 100 sec by phenol red dye based stopped flow assay
Carbonic anhydrase 2 = Carbonic anhydrase 2 (Homo sapiens, UniProt P00918); test: Inhibition of recombinant human carbonic anhydrase-2 assessed as reduction in enzyme-catalyzed hydration activity using CO2 as substrate preincubated for 15 mins followed substrate addition measured after 10 to 100 sec by phenol red dye based stopped flow assay
Carbonic anhydrase 4 = Carbonic anhydrase 4 (Homo sapiens, UniProt P22748); test: Inhibition of recombinant human carbonic anhydrase-4 assessed as reduction in enzyme-catalyzed hydration activity using CO2 as substrate preincubated for 15 mins followed substrate addition measured after 10 to 100 sec by phenol red dye based stopped flow assay
Carbonic anhydrase 7 = Carbonic anhydrase 7 (Homo sapiens, UniProt P43166); test: Inhibition of recombinant human carbonic anhydrase-7 assessed as reduction in enzyme-catalyzed hydration activity using CO2 as substrate preincubated for 15 mins followed substrate addition measured after 10 to 100 sec by phenol red dye based stopped flow assay
Carbonic anhydrase 7, sequence (P43166 whole entry): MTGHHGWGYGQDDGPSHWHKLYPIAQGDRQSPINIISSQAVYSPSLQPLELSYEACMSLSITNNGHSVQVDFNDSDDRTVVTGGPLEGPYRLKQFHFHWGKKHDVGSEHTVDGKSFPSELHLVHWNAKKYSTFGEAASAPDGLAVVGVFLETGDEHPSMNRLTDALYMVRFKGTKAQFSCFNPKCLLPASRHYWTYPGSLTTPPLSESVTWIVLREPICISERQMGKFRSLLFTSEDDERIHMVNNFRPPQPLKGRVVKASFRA

Carbonic anhydrase 4, sequence (P22748 whole entry): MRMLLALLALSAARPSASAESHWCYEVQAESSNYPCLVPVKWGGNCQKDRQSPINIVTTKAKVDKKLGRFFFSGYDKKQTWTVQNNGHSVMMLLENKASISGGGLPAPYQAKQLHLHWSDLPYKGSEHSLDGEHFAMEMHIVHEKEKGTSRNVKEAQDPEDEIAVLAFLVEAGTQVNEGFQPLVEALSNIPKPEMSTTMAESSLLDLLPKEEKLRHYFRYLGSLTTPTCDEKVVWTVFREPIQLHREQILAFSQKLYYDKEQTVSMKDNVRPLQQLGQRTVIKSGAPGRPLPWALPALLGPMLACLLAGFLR
Carbonic anhydrase 1, sequence (P00915 whole entry): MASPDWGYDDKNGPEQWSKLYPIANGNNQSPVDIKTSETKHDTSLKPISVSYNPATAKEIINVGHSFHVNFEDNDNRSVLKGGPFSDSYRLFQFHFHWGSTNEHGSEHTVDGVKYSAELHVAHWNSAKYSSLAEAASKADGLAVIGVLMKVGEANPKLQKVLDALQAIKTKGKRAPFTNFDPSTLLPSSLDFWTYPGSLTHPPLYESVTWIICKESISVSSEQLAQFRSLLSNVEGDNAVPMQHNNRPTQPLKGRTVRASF

| Structure (SMILES) | Ki (Carbonic anhydrase 1) [µM] | Ki (Carbonic anhydrase 2) [µM] | Ki (Carbonic anhydrase 4) [µM] | Ki (Carbonic anhydrase 7) [µM] |
| --- | --- | --- | --- | --- |
| COc1ccc(S(N)(=O)=O)c(-c2c(C)noc2NC(C)=O)c1 | > 10 | > 10 | > 10 | > 10 |
| COc1ccc(-c2noc(N)c2S(N)(=O)=O)cc1S(N)(=O)=O | > 10 |  |  | > 10 |
| CC(=O)Nc1onc(C)c1-c1ccc(S(N)(=O)=O)c(C)c1 |  |  | > 10 |  |
| COc1ccc(S(N)(=O)=O)c(-c2noc(N)c2S(N)(=O)=O)c1 | > 10 |  | > 10 | > 10 |
| COc1ccc(-c2cc(NC(C)=O)on2)cc1S(N)(=O)=O | > 10 | > 10 | > 10 | > 10 |

Results, then the compound that gave them:

| Ki (Carbonic anhydrase 1) [µM] | Ki (Carbonic anhydrase 2) [µM] | Ki (Carbonic anhydrase 4) [µM] | Ki (Carbonic anhydrase 7) [µM] | Structure (SMILES) |
| --- | --- | --- | --- | --- |
| > 10 |  | > 10 |  | CC(=O)Nc1cc(-c2ccc(C)c(S(N)(=O)=O)c2)no1 |
| > 10 | > 10 | > 10 | > 10 | COc1ccc(-c2c(C)noc2NC(C)=O)cc1S(N)(=O)=O |
| > 10 | > 10 | > 10 | > 10 | COc1ccc(S(N)(=O)=O)c(-c2cc(NC(C)=O)on2)c1 |
| > 10 |  | > 10 | > 10 | CC(=O)Nc1cc(-c2cc(S(N)(=O)=O)c(C)s2)no1 |
